# Patent US8716324B2, “Tricyclic indeno-pyrrole derivatives as serotonin receptor modulators” (Athersys, Inc., priority 2004, dated 2014)
# Molecular target: human 5HT2c receptor (VSV Isoform) (Homo sapiens, UniProt P28335, I156V/I160V/N158S)
# Assay: cell-based
# Conditions: 5-HT2c EC50 (hVSV, μM)
# human 5HT2c receptor (VSV Isoform), sequence (P28335 33-458 I156V/N158S/I160V limits assumed): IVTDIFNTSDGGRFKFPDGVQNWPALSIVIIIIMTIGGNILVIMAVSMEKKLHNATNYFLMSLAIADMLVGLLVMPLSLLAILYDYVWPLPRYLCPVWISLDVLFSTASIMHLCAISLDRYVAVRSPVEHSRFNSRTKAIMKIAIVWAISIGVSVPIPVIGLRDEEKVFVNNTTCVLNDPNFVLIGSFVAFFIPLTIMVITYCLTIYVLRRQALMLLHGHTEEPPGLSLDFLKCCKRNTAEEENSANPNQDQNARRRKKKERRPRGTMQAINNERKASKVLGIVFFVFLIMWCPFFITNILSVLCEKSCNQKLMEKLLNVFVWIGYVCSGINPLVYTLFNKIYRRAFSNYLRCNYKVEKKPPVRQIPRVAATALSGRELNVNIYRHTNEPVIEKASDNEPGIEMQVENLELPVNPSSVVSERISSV
row,SMILES,EC50 [µM]
1,"CC1c2c(ccc(Cl)c2Cl)C2CNCC12 (single isomer, unassigned) [27, Enantiomer 2]",< 0.1
2,"CC1c2c(ccc(Cl)c2F)C2CNCC12 (single isomer, unassigned) [42, Enantiomer 2]",< 0.1
3,"CC1c2ccc(-c3c(F)cccc3F)cc2C2CNCC12 (single isomer, unassigned) [47, Enantiomer 2]",> 10
4,"CC1c2ccc(F)cc2C2CNCC12 (stereo not drawn) [Example 18, 5-Fluoro-8-methyl-1,2,3,3a,8,8a-hexahydroindeno[1,2-c]pyrrole]",< 1
5,"CC1c2ccc(OCc3cccc(F)c3)cc2C2CNCC12 (single isomer, unassigned) [45, Enantiomer 2]",< 10
6,"CC1c2ccc(OC(F)(F)F)cc2C2CNCC12 (stereo not drawn) [Example 40, 5-Trifluoromethoxy-8-methyl-1,2,3,3a,8,8a-hexahydroindeno[1,2-c]pyrrole]",> 10
7,"Cc1ccc2c(c1)C(C)C1CNCC21 (stereo not drawn) [Example 15, 6-Methyl-8-methyl-1,2,3,3a,8,8a-hexahydroindeno[1,2-c]pyrrole]",< 1
8,"CC1c2ccc(Cl)c(Cl)c2C2CNCC12 (single isomer, unassigned) [41, Enantiomer 1]",< 1
9,"CC1c2c(ccc(Cl)c2Cl)C2CNCC12 (stereo not drawn) [Example 27, 6,7-Dichloro-8-methyl-1,2,3,3a,8,8a-hexahydroindeno[1,2-c]pyrrole]",< 0.1
